Drawing on patent publication US12310980B2, “Synthesis of a potent aromatase inhibitor 17α-acetoxy-10β,11β-dihydroxy-progesterone for the treatment of ER+ breast cancer” (priority 2023, dated 2025), this text covers inhibition of ovulation, IC50 and cytotoxicity for two compounds.

For data set [1], the system named is ovulation. The following applies: oral dosage of 10 mg/day in combination with 50 μg/day ethinylestradiol; cited from earlier work.
Data set [2] deals with T1, human aromatase (Homo sapiens, UniProt P11511).
T1 construct: containing protein (2 mg) from human placental microsomes; from tissue; host or cells: human placenta (microsomes)
T1 sequence (P11511 1-503): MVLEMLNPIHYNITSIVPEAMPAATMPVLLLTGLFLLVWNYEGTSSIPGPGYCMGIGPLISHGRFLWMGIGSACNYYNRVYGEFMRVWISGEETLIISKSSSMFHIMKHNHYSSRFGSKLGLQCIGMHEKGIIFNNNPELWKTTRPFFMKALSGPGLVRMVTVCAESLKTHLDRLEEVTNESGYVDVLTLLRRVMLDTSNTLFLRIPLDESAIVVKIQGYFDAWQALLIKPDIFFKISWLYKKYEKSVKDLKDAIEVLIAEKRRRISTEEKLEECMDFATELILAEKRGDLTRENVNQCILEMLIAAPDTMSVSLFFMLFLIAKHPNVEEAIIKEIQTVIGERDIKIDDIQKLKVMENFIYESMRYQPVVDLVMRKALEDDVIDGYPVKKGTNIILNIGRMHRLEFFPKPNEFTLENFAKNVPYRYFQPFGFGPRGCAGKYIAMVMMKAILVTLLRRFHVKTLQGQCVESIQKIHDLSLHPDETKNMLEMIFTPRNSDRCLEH
As to the kind of experiment: UPLC-based aromatase inhibition assay. In kind it is biochemical.

In data set [3] the test system is human fibroblast cell line. The data set is described as follows: cytotoxicity against human fibroblast cell line.

Where two headings read alike, the source gives them in different places.

A word on the IC50: it is the midpoint of a concentration-inhibition curve. As to `CC(=O)O[C@]1(C(C)=O)CC[C@H]2[C@@H]3CCC4=CC(=O)CC[C@@H]4[C@H]3CC[C@@]21C` [Compound 1, 17α-acetoxy-19-nor-progesterone], the inhibition of ovulation result in data set [1] is “inhibit ovulation”. In addition, the IC50 in data set [2] (in vitro, human placental microsomes, testosterone substrate, read-out: aromatase inhibition IC50) was 740 ± 24.1 nM.

With `CC(=O)O[C@]1(C(C)=O)CC[C@H]2[C@@H]3CCC4=CC(=O)CC[C@]4(O)[C@H]3[C@@H](O)C[C@@]21C` [Compound 2, 17α-Acetoxy-10β,11β-dihydroxy-progesterone], the IC50 in data set [2] turned out to be 827 ± 66 nM. In data set [3], the cytotoxicity result is reported as “non-cytotoxic”.
